Results on four molecules are retold here after article PMC2656214, “A circuit supporting concentration-invariant odor perception in Drosophila” (Journal of Biology, 2009).

Common to all, as to test: G-CaMP calcium imaging of OSN axon terminals
Assay type in all cases: cell-based
Holding throughout (conditions): 10^-2 odor dilution in paraffin oil, 1 s pulse

In one assay the target is T1, Or42a (Drosophila melanogaster, UniProt Q9V9I2).
T1 construct: native receptor in Or42a olfactory sensory neuron of larva; G-CaMP calcium imaging; with Odorant receptor coreceptor
T1 sequence (Q9V9I2 1-406): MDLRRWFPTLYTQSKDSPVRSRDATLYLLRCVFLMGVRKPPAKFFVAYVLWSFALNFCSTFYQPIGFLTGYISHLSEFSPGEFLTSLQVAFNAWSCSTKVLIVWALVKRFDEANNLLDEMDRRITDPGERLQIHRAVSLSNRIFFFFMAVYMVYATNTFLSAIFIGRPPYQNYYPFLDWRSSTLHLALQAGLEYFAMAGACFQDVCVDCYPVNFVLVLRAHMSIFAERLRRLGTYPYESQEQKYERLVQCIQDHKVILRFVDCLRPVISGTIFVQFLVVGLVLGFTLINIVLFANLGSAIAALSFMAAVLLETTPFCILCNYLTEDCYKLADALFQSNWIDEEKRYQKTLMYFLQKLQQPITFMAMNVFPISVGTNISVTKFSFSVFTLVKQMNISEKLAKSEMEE
T1 sequence (Q9VNB5 1-486 partner): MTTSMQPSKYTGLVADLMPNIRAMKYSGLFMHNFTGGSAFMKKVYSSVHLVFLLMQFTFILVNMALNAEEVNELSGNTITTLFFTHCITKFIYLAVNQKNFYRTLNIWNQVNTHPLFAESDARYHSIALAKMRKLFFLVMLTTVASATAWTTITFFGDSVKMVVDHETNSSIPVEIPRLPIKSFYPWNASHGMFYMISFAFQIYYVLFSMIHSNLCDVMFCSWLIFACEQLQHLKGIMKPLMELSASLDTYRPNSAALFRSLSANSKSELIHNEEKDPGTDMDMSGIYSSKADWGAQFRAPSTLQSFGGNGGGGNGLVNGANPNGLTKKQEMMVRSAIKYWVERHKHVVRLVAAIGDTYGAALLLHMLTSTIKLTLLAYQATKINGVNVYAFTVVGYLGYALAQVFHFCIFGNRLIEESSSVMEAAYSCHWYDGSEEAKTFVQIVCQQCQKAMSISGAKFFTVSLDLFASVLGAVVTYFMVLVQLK

In the next assay the target is T2, Or35a (Drosophila melanogaster, UniProt Q9V3Q2).
T2 construct: native receptor in Or35a olfactory sensory neuron of larva; G-CaMP1.3 calcium imaging at axon terminals; with Odorant receptor coreceptor
T2 sequence (Q9V3Q2 1-409): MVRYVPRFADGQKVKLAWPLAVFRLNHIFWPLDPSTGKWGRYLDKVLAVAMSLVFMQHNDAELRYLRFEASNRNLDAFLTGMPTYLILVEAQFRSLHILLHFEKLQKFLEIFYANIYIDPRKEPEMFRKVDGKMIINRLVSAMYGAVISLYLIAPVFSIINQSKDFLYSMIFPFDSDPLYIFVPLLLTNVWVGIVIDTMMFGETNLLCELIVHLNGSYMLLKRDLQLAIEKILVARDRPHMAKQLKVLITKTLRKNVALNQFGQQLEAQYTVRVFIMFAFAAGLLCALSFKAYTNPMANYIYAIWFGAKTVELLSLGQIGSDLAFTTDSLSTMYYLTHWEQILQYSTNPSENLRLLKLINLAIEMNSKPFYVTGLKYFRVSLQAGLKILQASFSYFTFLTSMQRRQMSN
T2 sequence (Q9VNB5 1-486 partner): T1 sequence (Q9VNB5 1-486 partner)

Another assay deals with T3, Or82a (Drosophila melanogaster, UniProt P82986).
T3 construct: native receptor in Or82a olfactory sensory neuron of larva; G-CaMP1.3 calcium imaging at axon terminals; with Odorant receptor coreceptor
T3 sequence (P82986 1-385): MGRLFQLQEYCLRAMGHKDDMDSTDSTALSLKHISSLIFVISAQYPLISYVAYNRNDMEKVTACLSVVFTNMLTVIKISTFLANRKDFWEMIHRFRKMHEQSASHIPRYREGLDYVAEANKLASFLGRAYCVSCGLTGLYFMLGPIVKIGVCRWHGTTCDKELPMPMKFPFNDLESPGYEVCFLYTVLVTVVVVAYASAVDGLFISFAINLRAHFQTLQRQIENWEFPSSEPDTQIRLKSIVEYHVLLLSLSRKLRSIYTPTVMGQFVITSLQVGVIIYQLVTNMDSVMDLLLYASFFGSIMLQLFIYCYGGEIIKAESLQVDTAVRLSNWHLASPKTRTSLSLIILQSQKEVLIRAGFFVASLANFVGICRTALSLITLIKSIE
T3 sequence (Q9VNB5 1-486 partner): T1 sequence (Q9VNB5 1-486 partner)

`CCCCCC(C)=O` [2-Heptanone]: the “G-CaMP calcium imaging of OSN axon terminals” value (“G-CaMP calcium imaging” for short) at Or42a is listed as 2-Heptanone, which selectively activates Or42a but not Or42b OSNs.
`O=C1CCCCC1` [cyclohexanone]: the “G-CaMP calcium imaging” value at Or35a was “hexyl acetate and cyclohexanone selectively activated only Or35a”.
As to `CC(=O)OC/C=C(\C)CCC=C(C)C` [geranyl acetate], the “G-CaMP calcium imaging” value at Or82a was “Or82a-expressing neurons responded only to geranyl acetate”.
As to `CCCCCCOC(C)=O` [hexyl acetate], the “G-CaMP calcium imaging” value on Or35a was “hexyl acetate and cyclohexanone selectively activated only Or35a”.
